The results in this text go back to patent publication US20240383856A1 (Zedira GmbH, priority 2021, published 2024).

Where two headings read alike, the source gives them in different places.

In data set [1] the target is T1, recombinant human transglutaminase 2 (Homo sapiens, UniProt P21980).
T1 construct: purchased Zedira T022
T1 sequence (P21980 1-687): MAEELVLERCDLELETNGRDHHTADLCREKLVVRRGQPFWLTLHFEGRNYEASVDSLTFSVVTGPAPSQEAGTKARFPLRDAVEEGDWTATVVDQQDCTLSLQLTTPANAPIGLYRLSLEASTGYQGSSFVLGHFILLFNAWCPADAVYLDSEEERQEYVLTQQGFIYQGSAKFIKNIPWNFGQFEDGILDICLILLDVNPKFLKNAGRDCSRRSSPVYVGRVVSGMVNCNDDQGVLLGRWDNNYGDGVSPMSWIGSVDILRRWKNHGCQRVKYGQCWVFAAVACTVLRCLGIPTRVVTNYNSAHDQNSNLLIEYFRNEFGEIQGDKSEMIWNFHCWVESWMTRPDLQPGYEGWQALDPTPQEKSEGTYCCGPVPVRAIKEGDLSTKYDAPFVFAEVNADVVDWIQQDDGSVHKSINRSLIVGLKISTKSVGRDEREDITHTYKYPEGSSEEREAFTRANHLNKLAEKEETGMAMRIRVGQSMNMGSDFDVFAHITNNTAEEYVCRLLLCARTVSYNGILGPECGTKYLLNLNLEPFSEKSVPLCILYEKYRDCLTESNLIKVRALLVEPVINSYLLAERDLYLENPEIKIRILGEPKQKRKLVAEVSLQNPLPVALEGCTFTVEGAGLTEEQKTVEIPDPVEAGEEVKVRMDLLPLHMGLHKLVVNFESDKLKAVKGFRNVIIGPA
Description: Transglutaminase assay (DCC-assay): incorporation of dansylcadaverine into dimethylcasein. Format: biochemical. The procedure, abridged: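 IC50 is the inhibitor level that blocks 50% of initial activity. Activity is the fluorescence slope (λex 330, λem 500 nm) between 20 and 30 min of a 37 °C run, relative to a 2% DMSO control. The enzyme is recombinant human tissue transglutaminase, 10 nM final, tested against a 1:2 inhibitor dilution series in a pH 8.0 mix with 10 mM CaCl2, 10 mM glutathione, 16.7 µM dansylcadaverine and 4 µM N,N-dimethylcasein.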

A short description of data set [2]: Single-dose oral pharmacokinetic profile in mice. Format: in vivo. Particulars: male C57BL/6 mice, single oral dose 200 mg/kg; for CL/F / MRT / half-life / AUC(0-t) / Cmax: mouse, plasma. Here is the method: Presumed from promising Papp values (permeability coefficients, see below), the 5 inventors had proven the oral bioavailability of the inhibitors of the present application by the representative compounds II-3, II-15, and II-28. For this selected set of representative compounds, pharmacokinetic profiles were determined in male C57BL/6 mice (N=3, each). Briefly, the compounds were administered as single-dose soluble, oral formulation [20 mg/ml in PBS/(2—Hydroxypropyl)-β-cyclodextrin formulation] at 200 mg/kg. Plasma samples were taken at (0, 0.25, 0.5, 1, 2, 4, and 6 hours) and analyzed by LC-MS to determine the concentration of the representative compounds.

Data set [3] is described as follows: logD by shake flask method (octanol / PBS pH 7.4, HPLC). Particulars: octanol / PBS pH 7.4, shake flask. Format: physicochemical. The method in brief:
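LogD obtained by HPLC measurement of how the compound distributes between PBS (pH 7.4) and octanol in a shake-flask experiment.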

A short description of data set [4]: Caco-2 permeability assay (CacoReady kit). It is filed as in vitro ADME. Particulars: human. The procedure, abridged: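 Compounds are tested on pre-formed Caco-2 barriers supplied as a ready-to-use kit, following the kit protocol, and the Papp value is derived to estimate intestinal absorption.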
The mark [5] stands for this setting: TG2, table with the PK study, read-out: IC50.
Where [6] appears, read: recombinant human TG2 10 nM, dansylcadaverine incorporation into dimethylcasein, read-out: IC50 TG2.
[7] abbreviates: Caco-2, Caco-2, read-out: Papp [cm/s] ×10^−6.
[8] abbreviates: Caco-2, Caco-2 barrier, CacoReady kit, above 1×10^−6 cm/s classified as permeable.

One may read the IC90 as the concentration needed for an effect of 90%. Usually IC50 stands for the concentration needed to halve the response being measured. Broadly, the CL/F is clearance divided by bioavailability, as obtained after extravascular dosing. One may read the MRT as a mean duration of stay, worked out from the concentration-time curve. In general, half-life refers to the time in which the quantity being followed falls by half. A high value points to slow loss. As usually defined, the AUC(0-t) is exposure summed from dosing to a finite time, without extrapolation to infinity. Read a low AUC(0-t) as low exposure. One may read the logD as lipophilicity at a set pH, counting ionised and neutral species. Low readings indicate lower lipophilicity, high ones higher lipophilicity. Regarding `CNC(=O)C(=O)CC[C@H](NC(=O)c1sc(C(F)(F)F)nc1C)C(=O)Nc1cccn(CC(=O)NC2C3CC4CC(C3)CC2C4)c1=O` (stereo partly drawn) [II-15, (S)-N1-(1-(2-(2-adamantylamino)-2-oxoethyl)-2-oxo-1,2-dihydropyridin-3-yl)-N6-methyl-2-(4-methyl-2-(trifluoromethyl)thiazole-5-carboxamido)-5-oxohexanediamide], the IC90 in data set [1] (TG2, table with the PK study) was determined as 375 nM. Besides, the IC50 in data set [1] (setting [5]) is 35 nM. For the same compound, the 50% inhibitory concentration (IC50) in data set [1] (setting [6]) is under 40 nM. Further, in data set [2], the “Kel” value amounted to 0.9 h⁻¹, the CL/F is 102 mL/min/kg, the MRT is 1.1 h and the half-life was 0.9 h. Also, the AUC(0-t) in data set [2] was determined as 36900 ng·h/mL. In addition, the Cmax in data set [2] (read-out: Cmax) was determined as 48.6 µM. For the same compound, in data set [2] (read-out: Cmax [ng/ml]), the Cmax stood at 32300 ng/mL. This compound registered a logD in data set [3] of 1 to 3. For the same compound, the Papp in data set [4] (setting [7]) worked out at 5.9 ×10⁻⁶ cm/s. In data set [4] (setting [8]), this compound yielded a Papp of 1 to 10 ×10⁻⁶ cm/s.

Take `CNC(=O)C(=O)CC[C@H](NC(=O)c1cc(Cl)sc1Cl)C(=O)Nc1cccn(CC(=O)NC2C3CC4CC(C3)CC2C4)c1=O` (stereo partly drawn) [II-28, (S)-2-(2,5-dichlorothiophene-3-carboxamido)-N1-(1-(2-(2-adamantylamino)-2-oxoethyl)-2-oxo-1,2-dihydropyridin-3-yl)-N6-methyl-5-oxohexanediamide]: the IC90 in data set [1] (TG2, table with the PK study) worked out at 240 nM. In addition, in data set [1] (setting [5]), the IC50 amounted to 24 nM. The IC50 in data set [1] (setting [6]) was under 40 nM. For the same compound, in data set [2], the “Kel” value amounted to 0.6 h⁻¹, the CL/F was 247 mL/min/kg, the MRT amounted to 1.6 h and the half-life is 1.1 h. The AUC(0-t) in data set [2] turned out to be 14500 ng·h/mL. In addition, the Cmax in data set [2] (read-out: Cmax) was 23.3 µM. For the same compound, the Cmax in data set [2] (read-out: Cmax [ng/ml]) was found to be 15100 ng/mL. The same compound registered a logD in data set [3] of 1 to 3. Also, in data set [4] (setting [7]), the Papp was determined as 7.4 ×10⁻⁶ cm/s. For the same compound, the Papp in data set [4] (setting [8]) lay within 1 to 10 ×10⁻⁶ cm/s.

Take `CNC(=O)C(=O)CC[C@H](NC(=O)c1nccn1C)C(=O)Nc1cccn(CC(=O)NC[C@@H]2CC[C@H]3C[C@@H]2C3(C)C)c1=O` [II-208, (S)-N1-(1-(2-(((1S,2R,5S)-6,6-dimethylbicyclo[3.1.1]heptan-2-yl)methylamino)-2-oxoethyl)-2-oxo-1,2-dihydropyridin-3-yl)-N6-methyl-2-(1-methyl-1H-imidazole-2-carboxamido)-5-oxohexanediamide]: the IC50 in data set [1] (setting [6]) is 400 to 2500 nM. The compound also returned a logD in data set [3] of 1 to 3. In addition, the Papp in data set [4] (setting [8]) was under 1 ×10⁻⁶ cm/s.

As for `CNC(=O)C(=O)CC[C@H](NC(=O)c1c[nH]cn1)C(=O)Nc1cccn(CC(=O)NC[C@@H]2CC[C@@H]3C[C@H]2C3(C)C)c1=O` [II-209, (S)-N1-(1-(2-(((1R,2R,5R)-6,6-dimethylbicyclo[3.1.1]heptan-2-yl)methylamino)-2-oxoethyl)-2-oxo-1,2-dihydropyridin-3-yl)-2-(1H-imidazole-4-carboxamido)-N6-methyl-5-oxohexanediamide], in data set [1] (setting [6]), the IC50 is 400 to 2500 nM. For the same compound, in data set [3], the logD was in the range of 1 to 3. The Papp in data set [4] (setting [8]) is under 1 ×10⁻⁶ cm/s.

As for `CNC(=O)C(=O)CC[C@H](NC(=O)c1cncn1C)C(=O)Nc1cccn(CC(=O)NC23CC4CC(C)(CC(C)(C4)C2)C3)c1=O` [II-210, (S)-N1-(1-(2-(3,5-dimethyladamantane-1-amino)-2-oxoethyl)-2-oxo-1,2-dihydropyridin-3-yl)-N6-methyl-2-(1-methyl-1H-imidazole-5-carboxamido)-5-oxohexanediamide], the IC50 in data set [1] (setting [6]) was 40 to 400 nM. Moreover, the logD in data set [3] was in the range of 1 to 3. Further, the Papp in data set [4] (setting [8]) is under 1 ×10⁻⁶ cm/s.

With `CNC(=O)C(=O)CC[C@H](NC(=O)c1cncn1C)C(=O)Nc1cccn(CC(=O)NC23CC4(C)CC(C)(CC(C)(C4)C2)C3)c1=O` [II-211, (S)-N1-(1-(2-(3,5,7-trimethyl-1-adamantylamino)-2-oxoethyl)-2-oxo-1,2-dihydropyridin-3-yl)-N6-methyl-2-(1-methyl-1H-imidazole-5-carboxamido)-5-oxohexanediamide], the IC50 in data set [1] (setting [6]) is 40 to 400 nM. Further, in data set [3], the logD lay within 1 to 3. Also, the Papp in data set [4] (setting [8]) is under 1 ×10⁻⁶ cm/s.
